# Data reported in patent publication US4894370A, “Compositions having fermentation analogs of virginiamycin M1 as active ingredient” (Merck & Co., Inc., priority 1988, dated 1990).
# How the values were obtained:
# gram-positive bacteria = conditions: cited from earlier work
# Pancreatic CCK Receptor = target: T1, Pancreatic CCK Receptor (Rattus norvegicus, UniProt P30551); test: Pancreatic Cholecystokinin Receptor Binding Assay (125I-CCK-8); conditions: added as protease inhibitors
# T1 construct: Pancreatic receptor membranes were prepared by homogenzing a gram of fresh rat pancreas tissue; from tissue; host or cells: rat pancreas membranes
# T1 sequence (P30551 1-444): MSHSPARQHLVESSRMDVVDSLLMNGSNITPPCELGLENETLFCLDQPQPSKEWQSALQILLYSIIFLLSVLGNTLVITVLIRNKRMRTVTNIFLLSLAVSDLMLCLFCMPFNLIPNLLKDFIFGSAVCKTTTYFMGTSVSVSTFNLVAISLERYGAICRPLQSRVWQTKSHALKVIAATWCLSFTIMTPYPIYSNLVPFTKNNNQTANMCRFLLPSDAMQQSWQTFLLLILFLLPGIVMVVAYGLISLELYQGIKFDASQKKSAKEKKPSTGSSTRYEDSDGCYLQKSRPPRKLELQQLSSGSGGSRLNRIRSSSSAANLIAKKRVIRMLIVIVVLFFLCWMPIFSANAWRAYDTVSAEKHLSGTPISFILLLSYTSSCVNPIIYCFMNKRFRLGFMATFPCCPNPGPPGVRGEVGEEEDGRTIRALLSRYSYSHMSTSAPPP
# Protocol: Radiolabeled CCK-8 was purchased from New England Nullear as ^125 I-CCK-8. Receptor binding was performed according to Innis and Snyder Proc. Natl. Acad. Sci., 77, 6917 (1980), with the minor modification of adding the additional protease inhibitors, phenylmethane sulfonyl fluoride (PMSF) and o-phenanthroline, which have no effect on the ^125 I-CCK receptor binding assay. All assays were performed in triplicate. Pancreatic receptor membranes were prepared by homogenzing a gram of fresh rat pancreas tissue in 30 ml TRIS-HCl (50 mM), pH 7.7 using a Brinkman polytron PT10 (Brinkman). The homogenate was washed twice and collected by centrifugation at 48,000×g at 4° C. for 10 minutes. The membranes were resuspended in assay buffer consisting of 5 mM dithiothieitol, 0.1 mM bacitiacin, 5 mM MgCl2 ·H2 O, 0.2% heat denatured BSA, 1.2 mM PMSF and 0.5 mM O-phenanthroline at a concentration of 100 ml per gram of pancreas. […] The reaction mixtures were mixed briefly and placed in a 37° C. water bath with gentle shaking for 30 minutes. […] The filters were washed with 3×4 ml of the same buffer and the radioactivity associated with the filters was counted in a Beckman Gamma 5500 counter. […] The dried samples were then brought up in methanol/H2 O (1:1) and ready for assay.
# [1] = vs CCK-33; cited from earlier work
# gastric acid secretion = conditions: cited from earlier work
compound,measurement,setting,value
CC1=C\[C@@H](O)CC(=O)Cc2nc(co2)C(=O)N2CCC=C2C(=O)O[C@H](C(C)C)[C@H](C)/C=C/C(=O)NC\C=C\1 [Virginiamycin M1],antibacterial specificity,gram-positive bacteria,generally specific for gram-positive bacteria
c1cnc2c(c1)ccc1cccnc12 [o-phenanthroline],effect on the 125I-CCK receptor binding assay,Pancreatic CCK Receptor,no effect
"O=S(=O)(F)Cc1ccccc1 [phenylmethane sulfonyl fluoride (PMSF), phenylmethane sulfonyl fluoride]",effect on the 125I-CCK receptor binding assay,Pancreatic CCK Receptor,no effect
C-terminal octapeptide: C-terminal octapeptide of CCK,efficacy relative to CCK-33,[1],same efficacy
Gastrin-17,potency for stimulating gastric acid secretion relative to Gastrin-13,gastric acid secretion; vs Gastrin-13,2.5 times more potent
same,potency for stimulating gastric acid secretion relative to Gastrin-34,gastric acid secretion; vs Gastrin-34,5 times more potent
